Reference: patent US20260199263A1, “Composition For The Modified Release Of Biological Polyamines, In Particular Spermidine” (GIULIANI S.P.A., priority 2022, published 2026)
Converted amounts (≈) assume the structure as drawn. Where two headings read alike, the source gives them in different places.

Key:
[1] = data known from the literature, cited from earlier work
[2] = Solubility evaluation of PEA and SPE in water and ethanol with emulsifiers (tests A-H); type: physicochemical; conditions: for solubility: thermodynamic from solid; for dissolution behaviour in test H: test H: 50 mg PEA + 50 mg SUC in 95% vol EtOH (about 2.5 g), then 500 mg water, then 50 mg SPE
Procedure: First of all, an evaluation of the solubility of PEA and SPE in water and ethanol was carried out in the presence of two different concentrations of the two emulsifiers.
In both test C and test D, water was added initially up to 1 ml, then to 2 ml and finally to 5 ml.
In test H, 50 mg of PEA (crushed in the mortar because it was initially in the form of flakes) was placed in a 10 ml test tube and 50 mg of SUC were added.
300 mg of water were then added. At the time of addition, cloudiness was observed, but when heated it returned to being a clear solution again. Another 200 mg of water were then added, and the same behavior was observed. This time, it was necessary to heat for a longer time to obtain a clear solution again.
1) PEA was initially present in the form of flakes. It was reduced in size in the mortar before testing.
2) Emulsifiers were added to PEA before adding solvents.

SMILES | solubility in ethanol [1] [mg/mL] | solubility in water ([1]; in words) | solubility ([2]; ethanol, organic solvent or mixture, test G: 32 mg PEA, EtOH q.s. to 2 g, read-out: solubility of PEA in ethanol) [mg/mL] | solubility of PEA in water ([2]; test B: 50 mg PEA, H2O q.s. to 1 g) | solubility of PEA in water with emulsifier MGE ([2]; test C: PEA/MGE=10:1 w/w, H2O up to 5 ml) | solubility of PEA in water with emulsifier SUC ([2]; test D: PEA/SUC=10:1 w/w, H2O up to 5 ml) | solubility of PEA in water with emulsifier MGE ([2]; test E: PEA/MGE 1:1 w/w) | solubility of PEA in water with emulsifier SUC ([2]; test F: PEA/SUC 1:1 w/w) | dissolution behaviour in test H ([2]; heated) | Hot solubility ([2]; tests C and D, PEA in water with emulsifier 10:1 w/w, heated) | solubility in water [1] [mg/mL] | solubility ([2]; water, test A: 50 mg SPE, H2O q.s. to 1 g, read-out: solubility of SPE in water) [mg/mL]
CCCCCCCCCCCCCCCC(=O)NCCO [PEA, N-(2-hydroxyethyl)hexadecanamide] | 16 (≈ 53.4 mM) | insoluble | 16 (≈ 53.4 mM) | insolubility | does not seem to improve the solubility | does not seem to improve the solubility | comparable to test C | appears to increase slightly, but not sufficiently | perfectly clear solution | does not appear to have significant improvements | – | –
NCCCCNCCCN [SPE, N-(3-aminopropyl)butane-1,4-diamine·3HCl] | – | – | – | – | – | – | – | – | dissolved immediately | – | 50 | 50
